As a reminder, the IC50 is the midpoint of a concentration-inhibition curve.

Read-outs that look alike come from different tables or passages of the source.

The values below come from US7678784B2, “Oxime-containing macrocyclic acyl guanidines as β-secretase inhibitors” (Bristol-Myers Squibb Company, priority 2006, dated 2010).

The conditions of series [1]: rcm bond, Grubbs 1st generation catalyst, dichloromethane, 65.0 °C.
The next series concerns the target T1, BACE1 enzyme (Homo sapiens, UniProt P56817).
T1 construct: The HEK293-9B.A1 cell line, which overexpresses the BACE1 enzyme, was derived from HEK293 cells; endogenous in cells; washed 48,000 x g pellet of cell homogenate
Kind of series: Radioligand displacement assay with a radiolabeled BACE inhibitor on HEK293-9B.A1 cell homogenate. Type of series: binding. To be noted: displacement of 1 nM tritiated radioligand, HEK293-9B.A1 homogenate, pH 5.0, 1.5 hr at 25° C.; read-out: Activity Rating (Activity based on IC50 values). The text has this: There are a number of methods by which inhibitors of the BACE enzyme can be identified experimentally. The enzyme can be obtained from membrane samples from natural tissues or cultured cells or can be expressed recombinantly in a host cell by well known methods of molecular biology. The whole enzyme or a portion thereof can be expressed, for example, in bacterial, insect or mammalian cells to obtain a catalytically active enzyme species. The enzymatic activity and/or ligand binding capability of the enzyme can be assessed within these membrane samples, or the enzyme can be purified to varying extents. As an illustrative example, the nucleic acid sequence encoding the pro and catalytic domains of human BACE can be appended on the 5′ end with an untranslated and signal sequence from the gene for acetylcholinesterase, and on the 3′ end with a sequence encoding a poly-histidine tag. This cDNA can then be expressed in Drosophila melanogaster S2 cells in which the signal and pro sequences of the transcribed/translated protein are removed by cellular proteases and the catalytic domain, appended by a C-terminal poly-histidine tag, is secreted out into the cellular medium. The enzyme can then be purified from the culture medium by nickel affinity chromatography by methods well known to those trained in the art [Mallender, W. et al., “Characterization of recombinant, soluble beta-secretase from an insect cell expression system.” Mol. Pharmacol. 2001, 59: 619-626]. Similar strategies for expressing and purifying various forms of BACE in bacterial, mammalian and other cell types would be known to one skilled in the art. A preferred method for determining the potency of a test compound in binding to the BACE enzyme is by monitoring the displacement of a suitable radioligand.
Radioligand displacement assays with a radiolabeled BACE inhibitor (WO 2004 013098, compound 3, where the methoxy group is substituted for C(^3H)3) were carried out using standard methods (Keen, M. (1999) in Receptor Binding Techniques (Walker, J. M. ed) p. 106 Humana Press, Totowa, N.J.). The HEK293-9B.A1 cell line, which overexpresses the BACE1 enzyme, was derived from HEK293 cells (Simmons, N. L. (1990) A cultured human renal epitheloid cell line responsive to vasoactive intestinal peptide. Exp. Physiol. 75:309-19.) by RAGE™ M (Harrington, J. J. et al. (2001) Creation of genome-wide protein expression libraries using random activation of gene expression. Nat. Biotechnol. 19:440-5; U.S. Pat. Nos. 6,410,266 and 6,361,972). T225 flask cultures of HEK293-9B.A1 were grown to 80% confluency in DMEM supplemented with 2 mM L-glutamine, 10 μg/ml penicillin, 10 μg/ml streptomycin, 3 μg/ml puromycin, 100 nM methotrexate, and 10% fetal bovine serum (Invitrogen, Carlsbad, Calif.), harvested, and resuspended at 2×10^8 cells per 10 ml of lysis buffer consisting of 50 mM HEPES pH 7.0 containing a protease inhibitor cocktail of AEBSF 104 μM, aprotinin 80 nM, leupeptin 2 μM, bestatin 4 μM, pepstatin A 1.5 μM, and E-64 1.4 μM (0.1% of protease inhibitor cocktail P8340, Sigma-Aldrich, St. Louis, Mo.) at 4° C. The resuspended cells were homogenized using a Polytron (Brinkman, Westbury, N.Y.) at setting 6 for 10 sec., then centrifuged at 48,000×g for 10 min. The resulting pellet was washed by repeating the resuspension, homogenization and centrifugation steps. The final pellet was resuspended in buffer at 4° C. to yield a total protein concentration of 5 mg/ml, then aliquots were frozen in liquid nitrogen for further storage at −70° C. Immediately before carrying out a binding assay, an aliquot of cell homogenate was thawed and diluted to a concentration of 100 μg/ml in assay buffer consisting of 50 mM HEPES pH 5.0 and 0.1% CHAPSO. […]
(In general: Displacement assays read how much labelled ligand stays bound in the presence of the test substance.)

T1 sequence (P56817 46-501): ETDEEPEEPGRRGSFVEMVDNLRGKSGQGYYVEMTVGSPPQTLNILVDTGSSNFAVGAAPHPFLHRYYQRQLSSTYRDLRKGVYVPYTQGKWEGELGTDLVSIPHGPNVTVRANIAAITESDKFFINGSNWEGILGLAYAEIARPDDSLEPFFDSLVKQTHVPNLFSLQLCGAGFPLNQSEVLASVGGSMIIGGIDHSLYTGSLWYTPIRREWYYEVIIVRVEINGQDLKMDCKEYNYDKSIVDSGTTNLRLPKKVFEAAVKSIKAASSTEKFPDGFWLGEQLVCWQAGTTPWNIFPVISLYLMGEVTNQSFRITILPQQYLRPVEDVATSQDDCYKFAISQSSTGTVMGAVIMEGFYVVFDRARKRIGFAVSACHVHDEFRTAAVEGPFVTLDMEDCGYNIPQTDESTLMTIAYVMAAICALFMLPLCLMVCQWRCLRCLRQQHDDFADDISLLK

For the compound `CCON=C1CC(=O)N=C(NC(=O)OC(C)(C)C)NCc2cc(Cl)c(c(Cl)c2)NC(=O)CN(C(=O)OC(C)(C)C)CC=CCOc2ccc1cc2`, in series [1] (from C=CCOc1ccc(C(CC(=O)N=C(NCc2cc(Cl)c(NC(=O)CN(CC=C)C(=O)OC(C)(C)C)c(Cl)c2)NC(=O)OC(C)(C)C)=NOCC)cc1, 2.85 mM, 4.0 h), the ring closure, yield of all isomers came out at 82.8%.
The compound `CCON=C1CC(=O)N=C(NC(=O)OC(C)(C)C)NCc2cc(Cl)c(c(Cl)c2)NC(=O)CN(C(=O)OC(C)(C)C)CCC=CCOc2ccc1cc2` came in with a ring closure, yield of all isomers in series [1] (from C=CCCN(CC(=O)Nc1c(Cl)cc(CNC(=NC(=O)CC(=NOCC)c2ccc(OCC=C)cc2)NC(=O)OC(C)(C)C)cc1Cl)C(=O)OC(C)(C)C, 3.0 mM, 4.0 h) of 69.1%.
`CCON=C1CC(=O)N=C(NC(=O)OC(C)(C)C)NCc2cc(Cl)c(c(Cl)c2)NC(=O)CN(C(=O)OC(C)(C)C)CCCC=CCOc2ccc1cc2` displayed a ring closure, yield of all isomers in series [1] (from C=CCCCN(CC(=O)Nc1c(Cl)cc(CNC(=NC(=O)CC(=NOCC)c2ccc(OCC=C)cc2)NC(=O)OC(C)(C)C)cc1Cl)C(=O)OC(C)(C)C, 2.62 mM, 1.5 h) of 82.9%.
In the case of `CCON=C1CC(=O)N=C(NC(=O)OC(C)(C)C)NCc2cc(Cl)c(c(Cl)c2)NC(=O)CN(C(=O)OC(C)(C)C)CCCCC=CCOc2ccc1cc2`, the ring closure, yield of all isomers in series [1] (from C=CCCCCN(CC(=O)Nc1c(Cl)cc(CNC(=NC(=O)CC(=NOCC)c2ccc(OCC=C)cc2)NC(=O)OC(C)(C)C)cc1Cl)C(=O)OC(C)(C)C, 2.93 mM, 2.0 h) was found to be 80.5%.
For the compound `CCON=C1CC(=O)/N=C(\N)NCc2cc(Cl)c(c(Cl)c2)NC(=O)CNCC=CCOc2ccc1cc2` (single isomer, unassigned; isomer a) [Example 1, Isomer A of 4-amino-23,26-dichloro-13-oxa-3,5,18,21-tetraazatricyclo[20.2.2.2^9,12]octacosa-1(24),4,9,11,15,22,25,27-octaene-6,8,20-trione 8-(O-ethyloxime)], the IC50 at BACE1 enzyme was more than 50 nM.
On the same count and under the same terms, as for `CCON=C1CC(=O)N=C(N)NCc2cc(Cl)c(c(Cl)c2)NC(=O)CNCCC=CCOc2ccc1cc2` (single isomer, unassigned; isomer a) [Example 4, Isomer A of 4-amino-24,27-dichloro-13-oxa-3,5,19,22-tetraazatricyclo-[21.2.2.29,12]nonacosa-1(25),4,9,11,15,23,26,28-octaene-6,8,21-trione 8-(O-ethyloxime)], the figure is 5 to 50 nM; as for `CCON=C1CC(=O)N=C(N)NCc2cc(Cl)c(c(Cl)c2)NC(=O)CNCCCC=CCOc2ccc1cc2` (single isomer, unassigned; isomer a) [Example 7, Isomer A of 4-amino-25,28-dichloro-13-oxa-3,5,20,23-tetraazatricyclo[22.2.2.29,12]triaconta-1(26),4,9,11,15,24,27,29-octaene-6,8,22-trione 8-(O-ethyloxime)], less than 5 nM.
Turning to `CCON=C1CC(=O)/N=C(\N)NCc2cc(Cl)c(c(Cl)c2)NC(=O)CNCC=CCOc2ccc1cc2` (single isomer, unassigned; isomer b) [Example 2, Isomer B of 4-amino-23,26-dichloro-13-oxa-3,5,18,21-tetraazatricyclo-[20.2.2.2^9,12]octacosa-1(24),4,9,11,15,22,25,27-octaene-6,8,20-trione 8-(O-ethyloxime)], the IC50 at BACE1 enzyme is more than 50 nM.
Same read-out and setting: in the case of `CCON=C1CC(=O)N=C(N)NCc2cc(Cl)c(c(Cl)c2)NC(=O)CNCCC=CCOc2ccc1cc2` (single isomer, unassigned; isomer b) [Example 5, Isomer B of 4-amino-24,27-dichloro-13-oxa-3,5,19,22-tetraazatricyclo-[21.2.2.29,12]nonacosa-1(25),4,9,11,15,23,26,28-octaene-6,8,21-trione 8-(O-ethyloxime)] it was 5 to 50 nM; in that of `CCON=C1CC(=O)N=C(N)NCc2cc(Cl)c(c(Cl)c2)NC(=O)CNCCCC=CCOc2ccc1cc2` (single isomer, unassigned; isomer b) [Example 8, Isomer B of 4-amino-25,28-dichloro-13-oxa-3,5,20,23-tetraazatricyclo-[22.2.2.29,12]triaconta-1(26),4,9,11,15,24,27,29-octaene-6,8,22-trione 8-(O-ethyloxime)], less than 5 nM.
Still for that read-out and setting: in the case of `CCON=C1CC(=O)N=C(N)NCc2cc(Cl)c(c(Cl)c2)NC(=O)CNCCCCOc2ccc1cc2` [Example 3, 4-Amino-23,26-dichloro-13-oxa-3,5,18,21-tetraazatricyclo[20.2.2.2^9,12]-octacosa-1(24),4,9,11,22,25,27-heptaene-6,8,20-trione 8-(O-ethyloxime)] it was 5 to 50 nM; in that of `CCON=C1CC(=O)N=C(N)NCc2cc(Cl)c(c(Cl)c2)NC(=O)CNCCCCCOc2ccc1cc2` [Example 6], 5 to 50 nM.
On the same count and under the same terms, in the case of `CCON=C1CC(=O)N=C(N)NCc2cc(Cl)c(c(Cl)c2)NC(=O)CNCCCCCCOc2ccc1cc2` [Example 9, 4-Amino-25,28-dichloro-13-oxa-3,5,20,23-tetraazatricyclo[22.2.2.2^9,12]-triaconta-1(26),4,9,11,24,27,29-heptaene-6,8,22-trione 8-(O-ethyloxime)] it was less than 5 nM; in that of `CCON=C1CC(=O)N=C(N)NCc2cc(Cl)c(c(Cl)c2)NC(=O)CNCCCCC=CCOc2ccc1cc2` [Example 10, 4-Amino-26,29-dichloro-13-oxa-3,5,21,24-tetraazatricyclo-[23.2.2.2^9,12]hentriaconta-1(27),4,9,11,15,25,28,30-octaene-6,8,23-trione 8-(O-ethyloxime)], less than 5 nM.
With `CCON=C1CC(=O)N=C(N)NCc2cc(Cl)c(c(Cl)c2)NC(=O)CNCCCCCCCOc2ccc1cc2` [Example 11, 4-Amino-26,29-dichloro-13-oxa-3,5,21,24-tetraazatricyclo-[23.2.2.2^9,12]hentriaconta-1(27),4,9,11,25,28,30-heptaene-6,8,23-trione 8-(O-ethyloxime)], the concentration for half-maximal inhibition (IC50) on BACE1 enzyme is less than 5 nM.
